Experiments:
[1] = test system: HT1080 cells
Protocol: FIG. 7A and FIG. 7B depict the effect of photosensitive particles and radionuclides on cell viability. […] The control group was considered to be 100% viable. […] HT1080 cells were used and the values are means±s.e.m. (experiments for each group were run in triplicates).
The MTS (3-(4,5-di methylthiazol-2-yl)-5-(3-carboxymethoxyphenyl)-2-(4-sulfophenyl)-2H-tetrazolium) assay, a colorimetric assay for assessing cell viability was performed using the CellTiter 96® AQueous Non-Radioactive Cell Proliferation Assay kit (Promega Co.) according to the manufacturer's instructions.

[2] = test system: HT1080 tumors; assay type: in vivo, mice; conditions: i.v. with FDG, monitored 15 days
Description: Tumor volume was registered every alternate day for 15 days.

[3] = test system: HT1080 cells; assay: Lipid peroxidation assay (BODIPY 581/591 C11); assay type: cell-based
Protocol: BODIPY® 581i591 C11 reagent (Life Technologies Inc.) was used to quantitatively determine the degree of lipid peroxidation. It is a ratiometric fluorescence technique that relies on oxidation of lipids to shift fluorescence emission peak from 590 nm to 510 nm. […] All the compounds were incubated for 6 h at 37° C. Finally, the BODIPY-based dye (10 μM) was added and incubated for 30 min at 37° C. After washing the cells with PBS three times, the plate was analysed using a Synergy HT multimode plate reader (BioTek Instruments Inc., Winooski, USA) with excitation/emission of 581/591 nm for the reduced dye and at 488/510 nm for the oxidized dye. The ratio of the fluorescence intensities at 590/510 nm was plotted to derive the ratio of fluorescence change.

[4] = test system: mitochondrial membrane potential; assay: Mitochondrial membrane potential assay (Mitotracker Green); assay type: cell-based; conditions: coincubated with FDG
Protocol: For measuring mitochondrial membrane potential, Mitotracker Green (Life Technologies Inc.) was used according to manufacturer's instructions. Staurosporine (2 μM; Sigma Aldrich Co.) was used as positive control. Fluorescence readout was performed using a plate reader using excitation/emission wavelengths of 490/516 nm.

[5] = test system: HT1080 cell line; conditions: expected result of planned assay
[6] = test system: cells; conditions: literature; cited from earlier work
[7] = test system: 4T1 and HT1080 tumor; conditions: mouse, in vivo
Description: The studies were commenced when tumor volume reached 500 mm^3. […] The animals were euthanized subsequently and major organs dissected and imaged in the same channel. Image J was used to quantitate fluorescence intensity by drawing regions of interest encompassing entire organs.

[8] = test system: HT1080 tumor; conditions: mouse, in vivo

Titanocene dichloride [Tc]
concentration that did not induce apoptosis [1]: < 10000 ng/mL | tumor volume, fold smaller compared to controls [2]: four-fold | peroxidation of cellular lipids ([3]; with FDG): induced significant peroxidation and degradation of cellular lipids | mitochondrial membrane potential [4]: significant decrease in mitochondrial membrane potential | LD50 Tc concentration, fold lower with CR than without FDG [5]: at least 4 fold | concentration known to induce apoptosis in cells [6]: ≥ 12500 ng/mL

Cc1c(C)c2c(c(C)c1O)CCC(C)(C(=O)O)O2 (centres unmarked) [Trolox, reference compound]
effect of peroxyl radical scavenger on lipid peroxidation ([3]; added to Tc and FDG): adequately inhibited this process

titanium dioxide [TiO2]
concentration at which TiO2 particles did not induce apoptosis [1]: < 0.004 ng/mL | concentration that did not induce apoptosis [1]: < 4000 ng/mL

Tf: transferrin, tumor targeting protein; Alexa 680 labeled for biodistribution
tumor:muscle ratio [7]: 5.5 | tumor to muscle ratio [8]: 5.3
